# Test results published in article PMC3743763, “Conformational Changes in the Lower Palm Domain of ASIC1a Contribute to Desensitization and RFamide Modulation” (PLoS ONE, 2013).
# Where a chain is given by its changes, count along the chain named. Residues, ends and D or L forms follow the SMILES beside them. No end group written: not given here.
# Legend:
# wildtype ASIC1a = experiment: MTSET exposure, two-electrode voltage clamp in Xenopus oocytes; type: cell-based, human
# Description: (§1) The Stratagene QuikChange® site-directed mutagenesis kit (Cedar Creek, TX) was used to introduce point mutations into the human ASIC1a cDNA (GENBANK accession number NM_001095) within the pMT3 expression vector. Mutations were confirmed by DNA sequencing at the Plant-Microbe Genomics Facility at The Ohio State University and high quality plasmid DNA was prepared for injection using Qiagen (Valencia, CA) Midi prep kits. Female Xenopus laevis were purchased from Xenopus I (Dexter, MI) and Xenopus oocytes were isolated using standard procedures. This work was implemented in accordance with the Guide for the Care and Use of Laboratory Animals of the National Institutes of Health and approved by the Institutional Animal Care and Use Committee of The Ohio State University (protocol # 2009A0161-R1). The oocyte removal surgery was performed under tricaine methanesulfonate (MS222) anesthesia and all efforts were made to minimize suffering. Ovarian lobes were removed and digested for 1.5-2 hours at room temperature with 1.2 mg/ml collagenase in Modified Barth’s solution lacking calcium (24 mM NaHCO3, 88 mM NaCl, 15 mM HEPES, 1 mM KCl, 0.8 mM MgSO4, 125 units/liter penicillin/streptomycin) to separate individual oocytes and remove follicular membranes. Healthy stage IV and V oocytes were selected and maintained in Modified Barth’s solution containing calcium (0.4 mM CaCl2 and 0. 3 mM Ca(NO3)2). The nuclei of isolated oocytes were injected with ~5 ng of a 100 ng/µl stock of wildtype or mutant ASIC1a expression plasmids using a PV820 pneumatic picopump (World Precision Instruments, Sarasota, FL). Oocytes were incubated at 18 °C for 18-96 hours before experiments were performed.
# The two-electrode voltage clamp technique was used to measure whole cell currents from Xenopus oocytes heterologously expressing ASIC1a channels as described. Electrodes were pulled using a Sutter P-97 micropipette puller (Sutter Instrument Co., Novato, CT) and filled with 3 M KCl (pipette resistance of 0.5–2 MΩ). Oocyte recordings were done in a modified RC-Z3 250 µl oocyte recording chamber (Warner Instruments, Hamden, CT). Data were acquired using an Oocyte Clamp OC-725 Amplifier (Warner Instruments, Hamden, CT) and a Powerlab 4SP digitizer with CHART5 software (ADI Instruments, Colorado Springs, CO). […]
# (§2) In order to obtain the pH dependence of activation, basal pH was maintained at pH 7.4. […] Peak current amplitude was measured for each test pH and normalized to the average peak amplitude of flanking pH 5.0 currents to minimize the impact of potential tachyphylaxis. […] As before, maximal currents were measured before and after test conditioning pH to minimize the effect of possible tachyphylaxis of proton-gated current. […]
# human ASIC1a L280C [1] = molecular target: T1, human ASIC1a L280C (Homo sapiens, UniProt P78348, L280C); experiment: MTSET modification of the cysteine mutant (residual current read-out), closed vs desensitized state; type: cell-based
# T1 construct: expressed in transfected cells; host or cells: Xenopus laevis oocytes (nuclear injection of pMT3 expression plasmid)
# T1 sequence (P78348 1-528 L280C): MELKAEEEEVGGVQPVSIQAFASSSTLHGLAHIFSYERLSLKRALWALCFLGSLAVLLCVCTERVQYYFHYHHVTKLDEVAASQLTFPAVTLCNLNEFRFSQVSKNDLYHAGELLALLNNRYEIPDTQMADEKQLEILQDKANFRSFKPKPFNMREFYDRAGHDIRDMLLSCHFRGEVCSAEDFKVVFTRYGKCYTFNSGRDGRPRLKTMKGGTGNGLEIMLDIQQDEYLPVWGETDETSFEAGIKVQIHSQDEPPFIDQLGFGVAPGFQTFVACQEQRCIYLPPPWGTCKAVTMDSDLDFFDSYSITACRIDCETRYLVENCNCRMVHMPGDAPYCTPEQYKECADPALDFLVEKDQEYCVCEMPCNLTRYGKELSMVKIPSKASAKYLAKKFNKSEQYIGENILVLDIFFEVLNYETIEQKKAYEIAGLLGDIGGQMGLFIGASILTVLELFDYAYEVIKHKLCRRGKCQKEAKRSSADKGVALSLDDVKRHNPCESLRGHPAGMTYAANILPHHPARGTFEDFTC
# Description: as §1
# The two-electrode voltage clamp technique was used to measure whole cell currents from Xenopus oocytes heterologously expressing ASIC1a channels as described. Electrodes were pulled using a Sutter P-97 micropipette puller (Sutter Instrument Co., Novato, CT) and filled with 3 M KCl (pipette resistance of 0.5–2 MΩ). Oocyte recordings were done in a modified RC-Z3 250 µl oocyte recording chamber (Warner Instruments, Hamden, CT). Data were acquired using an Oocyte Clamp OC-725 Amplifier (Warner Instruments, Hamden, CT) and a Powerlab 4SP digitizer with CHART5 software (ADI Instruments, Colorado Springs, CO). Except where noted, the extracellular solution contained (in mM): 116 NaCl, 2 KCl, 5 HEPES, 5 MES, 2 CaCl2, 1 MgCl2, with pH adjusted using 1N NaOH. The solution exchange rate in the recording chamber was ~1 ml/s. The holding potential was -60 mV unless otherwise noted. [2-(Trimethylammonium)ethyl] Methanethiosulfonate Bromide (MTSET) was purchased from Toronto Research Chemicals, Inc. (Ontario, Canada). FRRFamide peptide (FRRFa) and FRRF (no amide) were synthesized from EZBiolab, Inc. (Westfield, IN).
# Oocytes were maintained at a basal pH of 7.4 and maximal currents were established with application of pH 5.0. Currents were allowed to decay for at least 60 s. The control residual current was determined by normalizing the current remaining at 60 s to the peak amplitude (Iresidual/Itransient). After recovery, 300 µM MTSET was applied at pH 7.4 for the indicated duration and excess MTSET was washed away with at least 10 mL of pH 7.4 solution. The pH-dependence of activation and steady-state desensitization were measured as described above. During experiments using MTSET, the effect on residual current decreased slightly over time. […]
# human ASIC1a L280C [2] = molecular target: T1, human ASIC1a L280C; experiment: Peptide-MTSET competition (MTSET modification in presence of peptide, residual current read-out); type: cell-based
# Description: The Stratagene QuikChange® site-directed mutagenesis kit (Cedar Creek, TX) was used to introduce point mutations into the human ASIC1a cDNA (GENBANK accession number NM_001095) within the pMT3 expression vector. Mutations were confirmed by DNA sequencing at the Plant-Microbe Genomics Facility at The Ohio State University and high quality plasmid DNA was prepared for injection using Qiagen (Valencia, CA) Midi prep kits. Female Xenopus laevis were purchased from Xenopus I (Dexter, MI) and Xenopus oocytes were isolated using standard procedures. This work was implemented in accordance with the Guide for the Care and Use of Laboratory Animals of the National Institutes of Health and approved by the Institutional Animal Care and Use Committee of The Ohio State University (protocol # 2009A0161-R1). The oocyte removal surgery was performed under tricaine methanesulfonate (MS222) anesthesia and all efforts were made to minimize suffering. […]
# Vehicle or 100 µM peptide was applied for 1 minute at pH 7.4. […] Before residual current was measured, oocytes were washed with at least 50 mL of pH 7.4 over 10 minutes in order to remove peptides. […]
# human ASIC1a L280C [3] = molecular target: T1, human ASIC1a L280C; experiment: FRRFa / FRRF (no amide) modulation of acid-evoked currents, two-electrode voltage clamp in Xenopus oocytes; type: cell-based
# Description: as §1, with “performed. […]” for “performed.”
# as §2
# wildtype human ASIC1a = molecular target: T2, wildtype human ASIC1a (Homo sapiens, UniProt P78348); experiment: FRRFa modulation of acid-evoked currents, two-electrode voltage clamp in Xenopus oocytes; type: cell-based
# T2 construct: expressed in transfected cells; host or cells: Xenopus laevis oocytes (nuclear injection of pMT3 expression plasmid)
# T2 sequence (P78348 1-528): T1 sequence (P78348 1-528 L280C) with C280L
# Description: as §1, with “performed. […]” for “performed.”
# as §2
# [4] = molecular target: T3, human acid-sensing ion channel 1a (hASIC1a), wild type (human) (UniProt P78348)
# T3 sequence: T1 sequence (P78348 1-528 L280C) with C280L
# [5] = molecular target: T4, human ASIC1a L280C (human) (UniProt P78348)
# T4 sequence: T1 sequence (P78348 1-528 L280C)
molecule,measurement,setting,value
"C[N+](C)(C)CCSS(C)(=O)=O.[Br-] [MTSET, [2-(Trimethylammonium)ethyl] Methanethiosulfonate Bromide]",% residual current after MTS,"wildtype ASIC1a; 300 µM MTSET at pH 7.4, before MTS 0.16 ± 0.05%, n = 3, p = 0.3",0.31 ± 0.04%
same,τinact after MTS,"wildtype ASIC1a; 300 µM MTSET at pH 7.4, before MTS 1.8 ± 0.2 s, n = 3, p = 0.9",1.8 ± 0.2 s
same,"steady-state desensitization, conditioning pH6.7/7.4 after MTS","wildtype ASIC1a; 300 µM MTSET, before MTS 1.8 ± 0.7%, n = 3, p = 0.2",1.5 ± 0.6%
same,activation pH6.5/5.0 after MTS,"wildtype ASIC1a; 300 µM MTSET, before MTS 66 ± 10%, n = 3, p = 0.7",62 ± 3%
same,run down of MTSET effect: decrease in residual current with repeated pH 5.0 applications,"human ASIC1a L280C [1]; L280C after MTSET modification, n = 8, p = 0.003 paired t-test",17 ± 5%
same,run down of MTSET effect: decrease in inactivation rate with repeated pH 5.0 applications,"human ASIC1a L280C [1]; L280C after MTSET modification, n = 8, p = 0.01 paired t-test",31 ± 9%
same,run down of MTSET effect: decrease in peak amplitude with repeated pH 5.0 applications,"human ASIC1a L280C [1]; L280C after MTSET modification, n = 8, p = 0.02 paired t-test",5%
same,time until MTSET modification observed (increase in residual current),"human ASIC1a L280C [1]; L280C closed state, pH 6.8, 5.0 mM Ca2+ conditioning, 300 µM MTSET",≤ 2 min
same,MTSET modification in the desensitized state,"human ASIC1a L280C [1]; L280C desensitized state, pH 6.8, nominal Ca2+-free conditioning, 300 µM MTSET up to 6 minutes",did not appreciably modify L280C
same,time until MTSET modulation plateaued in presence of vehicle,human ASIC1a L280C [2]; 300 µM MTSET at pH 7.4 with vehicle,5 min
"FRRF [FRRF (no amide), peptide FRRF lacking the c-terminal amide, used as a control]",residual current (Iresidual/Itransient),"human ASIC1a L280C [3]; 100 µM peptide 1 min at pH 7.4 before pH 5.0, current at 60 s normalized to peak, p = 2x10^-6 vs FRRFa",5.6 ± 0.8%
same,effect of peptide on MTSET modification,human ASIC1a L280C [2]; 100 µM peptide + 300 µM MTSET at pH 7.4,did not interfere with MTSET modification
"N=C(N)NCCC[C@H](NC(=O)[C@H](CCCNC(=N)N)NC(=O)[C@@H](N)Cc1ccccc1)C(=O)N[C@@H](Cc1ccccc1)C(N)=O [FRRFa, FRRFamide] (H-FRRF-NH2)",increase in τinact with FRRFamide,"human ASIC1a L280C [3]; 100 µM FRRFa vs control, mean ± SEM, n = 17, p = 6x10^-5 vs wildtype, SEM",131 ± 16%
same,EC50,"human ASIC1a L280C [3]; responses normalized to 100 µM FRRFa, mean ± SEM, n = 6-8, p = 0.34 vs wildtype, SEM, read-out: EC50 of FRRFa modulation (effect on residual current)",14 ± 4 µM
same,increase in τinact with FRRFamide,"wildtype human ASIC1a; 100 µM FRRFa vs control, mean ± SEM, n = 14, SEM",45 ± 6%
same,difference in response between 100µM and 300µM FRRFa,"wildtype human ASIC1a; residual current, n = 5, p = 0.69 paired t-test (not significant)",10.42% ± 11.25
same,EC50,"wildtype human ASIC1a; responses normalized to 100 µM FRRFa, mean ± SEM, n = 6-8, SEM, read-out: EC50 of FRRFa modulation (effect on residual current)",20 ± 4 µM
FRRF-NH2 [FRRFamide peptide],"EC50 of FRRFa modulation of the residual current of pH 5.0-evoked currents (two-electrode voltage clamp, Xenopus oocytes; responses normalised to 100 µM FRRFa)",[4],20 µM
same,"EC50 of FRRFa modulation of the residual current of pH 5.0-evoked currents (two-electrode voltage clamp, Xenopus oocytes; responses normalised to 100 µM FRRFa)",[5],14 µM
